According to patent publication US10004701B2, “Methods and compositions for treating infection” (UNIVERSITY OF ROCHESTER, priority 2012, dated 2018):
Structures can show the parent of a compound that is named as a salt. Where two headings read alike, the source gives them in different places.

Key:
Experiment in all cases: AK assay 384-well format, Prestwick library screening
[1] = tested on: E. coli; format: cell-based, Escherichia coli; settings: 50 μM final drug concentration; for fold induction at 50 µM: Escherichia coli, 3 h
[2] = tested on: P. aeruginosa; format: cell-based, Pseudomonas aeruginosa; settings: 50 μM final drug concentration; for fold induction at 50 µM: Pseudomonas aeruginosa, 3 h
[3] = tested on: S. aureus strain USA300-0114; format: cell-based, Staphylococcus aureus; settings: 50 μM final drug concentration; for fold induction at 50 µM: Staphylococcus aureus, USA300, 3 h
[4] = tested on: K. pneumoniae; format: cell-based, Klebsiella pneumoniae; settings: 50 μM final drug concentration; for fold induction at 50 µM: Klebsiella pneumoniae, 3 h
[5] = tested on: A. baumannii strain 98-37-09; format: cell-based, Acinetobacter baumannii; settings: 50 μM final drug concentration; for fold induction at 50 µM: Acinetobacter baumannii, 983709, 3 h
[6] = tested on: E. faecium; format: cell-based, Enterococcus faecium; settings: 50 μM final drug concentration; for fold induction at 50 µM: Enterococcus faecium, 3 h
[7] = tested on: E. cloacae; format: cell-based, Enterobacter cloacae; settings: 50 μM final drug concentration; for fold induction at 50 µM: Enterobacter cloacae, 3 h
[8] = planktonic E. coli, […], read-out: AK-based Prestwick Library Screening Results, E. coli (increase in extracellular AK activity)
[9] = planktonic P. aeruginosa, […], read-out: AK-based Prestwick Library Screening Results, P. aeruginosa (increase in extracellular AK activity)
[10] = planktonic S. aureus, […], read-out: AK-based Prestwick Library Screening Results, S. aureus (increase in extracellular AK activity)
[11] = planktonic K. pneumoniae, […], read-out: AK-based Prestwick Library Screening Results, K. pneumoniae (increase in extracellular AK activity)
[12] = planktonic A. baumannii, […], read-out: AK-based Prestwick Library Screening Results, A. baumannii (increase in extracellular AK activity)
[13] = planktonic E. faecium, […], read-out: AK-based Prestwick Library Screening Results, E. faecium (increase in extracellular AK activity)
[14] = planktonic E. cloacae, […], read-out: AK-based Prestwick Library Screening Results, E. cloacae (increase in extracellular AK activity)
[15] = planktonic, cutoff for positive-scoring molecules 3-fold increase, read-out: AK-based Prestwick Library Screening Results, E. coli (fold increase in extracellular AK activity)
[16] = planktonic, cutoff for positive-scoring molecules 3-fold increase, read-out: AK-based Prestwick Library Screening Results, P. aeruginosa (fold increase in extracellular AK activity)
[17] = planktonic, cutoff for positive-scoring molecules 3-fold increase, read-out: AK-based Prestwick Library Screening Results, S. aureus (fold increase in extracellular AK activity)
[18] = planktonic, cutoff for positive-scoring molecules 3-fold increase, read-out: AK-based Prestwick Library Screening Results, K. pneumoniae (fold increase in extracellular AK activity)
[19] = planktonic, cutoff for positive-scoring molecules 3-fold increase, read-out: AK-based Prestwick Library Screening Results, A. baumannii (fold increase in extracellular AK activity)
[20] = planktonic, cutoff for positive-scoring molecules 3-fold increase, read-out: AK-based Prestwick Library Screening Results, E. faecium (fold increase in extracellular AK activity)
[21] = planktonic, cutoff for positive-scoring molecules 3-fold increase, read-out: AK-based Prestwick Library Screening Results, E. cloacae (fold increase in extracellular AK activity)

Q: Which fold induction at 50 µM ([1]; planktonic E. coli, positive cutoff 3-fold increase, read-out: AK-based Prestwick library screening result, E. coli (fold increase in extracellular AK activity)) does the source give for `CCCC1C(=O)N2C(N(C)C)=Nc3ccc(C)cc3N2C1=O` (stereo not drawn) [Azapropazone] here?
A: 1.1

Q: What about the fold induction at 50 µM ([2]; planktonic P. aeruginosa, positive cutoff 3-fold increase, read-out: AK-based Prestwick library screening result, P. aeruginosa (fold increase in extracellular AK activity)) of the same compound?
A: 1

Q: And the fold induction at 50 µM ([3]; planktonic S. aureus, positive cutoff 3-fold increase, read-out: AK-based Prestwick library screening result, S. aureus (fold increase in extracellular AK activity))?
A: 0.8

Q: And the fold induction at 50 µM ([4]; planktonic K. pneumoniae, positive cutoff 3-fold increase, read-out: AK-based Prestwick library screening result, K. pneumoniae (fold increase in extracellular AK activity))?
A: 0.9

Q: What about the fold induction at 50 µM ([5]; planktonic A. baumannii, positive cutoff 3-fold increase, read-out: AK-based Prestwick library screening result, A. baumannii (fold increase in extracellular AK activity)) of the same compound?
A: 0.9

Q: What about the fold induction at 50 µM ([6]; planktonic E. faecium, positive cutoff 3-fold increase, read-out: AK-based Prestwick library screening result, E. faecium (fold increase in extracellular AK activity)) of the same compound?
A: 1

Q: And the fold induction at 50 µM ([7]; planktonic E. cloacae, positive cutoff 3-fold increase, read-out: AK-based Prestwick library screening result, E. cloacae (fold increase in extracellular AK activity))?
A: 1.5

Q: `CN1CCN(CCCN2c3ccccc3Sc3ccc(C(F)(F)F)cc32)CC1` [Trifluoperazine dihydrochloride] was tested. Which fold induction at 50 µM ([1]; planktonic E. coli, 384-well, cutoff for positive-scoring molecules 3-fold increase, read-out: AK-based Prestwick Library Screening Results: E. coli (increase in extracellular AK activity)) did it give?
A: 1.7

Q: And the fold induction at 50 µM ([2]; planktonic P. aeruginosa, 384-well, cutoff for positive-scoring molecules 3-fold increase, read-out: AK-based Prestwick Library Screening Results: P. aeruginosa (increase in extracellular AK activity))?
A: 1.4

Q: What about the fold induction at 50 µM ([3]; planktonic S. aureus, 384-well, cutoff for positive-scoring molecules 3-fold increase, read-out: AK-based Prestwick Library Screening Results: S. aureus (increase in extracellular AK activity)) of the same compound?
A: 1.2

Q: What about the fold induction at 50 µM ([4]; planktonic K. pneumoniae, 384-well, cutoff for positive-scoring molecules 3-fold increase, read-out: AK-based Prestwick Library Screening Results: K. pneumoniae (increase in extracellular AK activity)) of the same compound?
A: 1.5

Q: And the fold induction at 50 µM ([5]; planktonic A. baumannii, 384-well, cutoff for positive-scoring molecules 3-fold increase, read-out: AK-based Prestwick Library Screening Results: A. baumannii (increase in extracellular AK activity))?
A: 3.4

Q: And the fold induction at 50 µM ([6]; planktonic E. faecium, 384-well, cutoff for positive-scoring molecules 3-fold increase, read-out: AK-based Prestwick Library Screening Results: E. faecium (increase in extracellular AK activity))?
A: 1.1

Q: And the fold induction at 50 µM ([7]; planktonic E. cloacae, 384-well, cutoff for positive-scoring molecules 3-fold increase, read-out: AK-based Prestwick Library Screening Results: E. cloacae (increase in extracellular AK activity))?
A: 1.3

Q: How did the fold induction at 50 µM [1, 8] turn out when `CC(C)(C)NCC(O)c1cc(Cl)c(N)c(Cl)c1` (stereo not drawn) [Clenbuterol hydrochloride] was run?
A: 0.8

Q: And the fold induction at 50 µM [2, 9]?
A: 0.8

Q: What about the fold induction at 50 µM [3, 10] of the same compound?
A: 0.7

Q: What about the fold induction at 50 µM [4, 11] of the same compound?
A: 0.7

Q: What about the fold induction at 50 µM [5, 12] of the same compound?
A: 0.8

Q: And the fold induction at 50 µM [6, 13]?
A: 0.9

Q: And the fold induction at 50 µM [7, 14]?
A: 0.9

Q: `O=C(O)/C=C/c1ccc(O)c(O)c1` [Caffeic acid] was tested. Which fold induction at 50 µM [1, 15] did it give?
A: 1

Q: And the fold induction at 50 µM [2, 16]?
A: 0.9

Q: What about the fold induction at 50 µM [3, 17] of the same compound?
A: 0.8

Q: And the fold induction at 50 µM [4, 18]?
A: 0.8

Q: And the fold induction at 50 µM [5, 19]?
A: 0.8

Q: What about the fold induction at 50 µM [6, 20] of the same compound?
A: 0.9

Q: And the fold induction at 50 µM [7, 21]?
A: 1

Q: Which fold induction at 50 µM [1, 15] does the source give for `CO[C@@]1(NC(=O)C(C(=O)O)c2ccc(O)cc2)C(=O)N2C(C(=O)O)=C(CSc3nnnn3C)CO[C@@H]21` (stereo partly drawn) [Moxalactam disodium salt] here?
A: 18.1

Q: What about the fold induction at 50 µM [2, 16] of the same compound?
A: 0.6

Q: What about the fold induction at 50 µM [3, 17] of the same compound?
A: 4.4

Q: And the fold induction at 50 µM [4, 18]?
A: 3.9

Q: What about the fold induction at 50 µM [5, 19] of the same compound?
A: 0.6

Q: And the fold induction at 50 µM [6, 20]?
A: 1.3

Q: What about the fold induction at 50 µM [7, 21] of the same compound?
A: 0.8

Q: Which fold induction at 50 µM ([1]; planktonic E. coli, cutoff for positive-scoring molecules 3-fold increase, read-out: AK-based Prestwick Library Screening Results, E. coli (increase in extracellular AK activity)) does the source give for `C[C@@H]1CC[C@H]2[C@@H](C)C(=O)O[C@@H]3O[C@@]4(C)CC[C@@H]1[C@]32OO4` [Artemisinin] here?
A: 0.5

Q: What about the fold induction at 50 µM ([2]; planktonic P. aeruginosa, cutoff for positive-scoring molecules 3-fold increase, read-out: AK-based Prestwick Library Screening Results, P. aeruginosa (increase in extracellular AK activity)) of the same compound?
A: 0.6

Q: What about the fold induction at 50 µM ([3]; planktonic S. aureus, cutoff for positive-scoring molecules 3-fold increase, read-out: AK-based Prestwick Library Screening Results, S. aureus (increase in extracellular AK activity)) of the same compound?
A: 0.5

Q: And the fold induction at 50 µM ([4]; planktonic K. pneumoniae, cutoff for positive-scoring molecules 3-fold increase, read-out: AK-based Prestwick Library Screening Results, K. pneumoniae (increase in extracellular AK activity))?
A: 0.6

Q: And the fold induction at 50 µM ([5]; planktonic A. baumannii, cutoff for positive-scoring molecules 3-fold increase, read-out: AK-based Prestwick Library Screening Results, A. baumannii (increase in extracellular AK activity))?
A: 0.7

Q: What about the fold induction at 50 µM ([6]; planktonic E. faecium, cutoff for positive-scoring molecules 3-fold increase, read-out: AK-based Prestwick Library Screening Results, E. faecium (increase in extracellular AK activity)) of the same compound?
A: 0.9

Q: And the fold induction at 50 µM ([7]; planktonic E. cloacae, cutoff for positive-scoring molecules 3-fold increase, read-out: AK-based Prestwick Library Screening Results, E. cloacae (increase in extracellular AK activity))?
A: 0.7

Q: How did the fold induction at 50 µM [1, 8] turn out when `C[C@]12CC[C@H](O)C[C@H]1CC[C@@H]1[C@@H]2CC[C@]2(C)[C@@H](C3=CC(=O)OC3)CC[C@]12O` [Digitoxigenin] was run?
A: 0.9

Q: And the fold induction at 50 µM [2, 9]?
A: 0.8

Q: And the fold induction at 50 µM [3, 10]?
A: 0.6

Q: And the fold induction at 50 µM [4, 11]?
A: 0.7

Q: What about the fold induction at 50 µM [5, 12] of the same compound?
A: 0.8

Q: What about the fold induction at 50 µM [6, 13] of the same compound?
A: 0.9

Q: And the fold induction at 50 µM [7, 14]?
A: 1.2

Q: How did the fold induction at 50 µM ([1]; 384-well format, cutoff for positive-scoring molecules 3-fold increase, read-out: AK-based Prestwick Library Screening Results, E. coli (increase in extracellular AK activity)) turn out when `NC(N)=Nc1nc(CSCCC(N)=NS(N)(=O)=O)cs1` [Famotidine] was run?
A: 0.9

Q: What about the fold induction at 50 µM ([2]; 384-well format, cutoff for positive-scoring molecules 3-fold increase, read-out: AK-based Prestwick Library Screening Results, P. aeruginosa (increase in extracellular AK activity)) of the same compound?
A: 0.8

Q: And the fold induction at 50 µM ([3]; 384-well format, cutoff for positive-scoring molecules 3-fold increase, read-out: AK-based Prestwick Library Screening Results, S. aureus (increase in extracellular AK activity))?
A: 0.5

Q: What about the fold induction at 50 µM ([4]; 384-well format, cutoff for positive-scoring molecules 3-fold increase, read-out: AK-based Prestwick Library Screening Results, K. pneumoniae (increase in extracellular AK activity)) of the same compound?
A: 0.8

Q: What about the fold induction at 50 µM ([5]; 384-well format, cutoff for positive-scoring molecules 3-fold increase, read-out: AK-based Prestwick Library Screening Results, A. baumannii (increase in extracellular AK activity)) of the same compound?
A: 0.8

Q: What about the fold induction at 50 µM ([6]; 384-well format, cutoff for positive-scoring molecules 3-fold increase, read-out: AK-based Prestwick Library Screening Results, E. faecium (increase in extracellular AK activity)) of the same compound?
A: 0.8

Q: And the fold induction at 50 µM ([7]; 384-well format, cutoff for positive-scoring molecules 3-fold increase, read-out: AK-based Prestwick Library Screening Results, E. cloacae (increase in extracellular AK activity))?
A: 1

Q: What does the source list for Colistin sulfate?
A: AK-based Prestwick Library Screening Results, E. coli (increase in extracellular AK activity) ([1]; planktonic E. coli, […]): 42.2; AK-based Prestwick Library Screening Results, P. aeruginosa (increase in extracellular AK activity) ([2]; planktonic P. aeruginosa, […]): 23.6; AK-based Prestwick Library Screening Results, S. aureus (increase in extracellular AK activity) ([3]; planktonic S. aureus, […]): 0.6; AK-based Prestwick Library Screening Results, K. pneumoniae (increase in extracellular AK activity) ([4]; planktonic K. pneumoniae, […]): 24.1; AK-based Prestwick Library Screening Results, A. baumannii (increase in extracellular AK activity) ([5]; planktonic A. baumannii, […]): 10.0; AK-based Prestwick Library Screening Results, E. faecium (increase in extracellular AK activity) ([6]; planktonic E. faecium, […]): 1.0; AK-based Prestwick Library Screening Results, E. cloacae (increase in extracellular AK activity) ([7]; planktonic E. cloacae, […]): 0.7
